# Counter-ions that a name gives are not always drawn.
# Biological target: T1, CYP2D6 (Homo sapiens, UniProt P10635)
# Assay: Microsomal inhibition study, inhibition of bufuralol metabolism (Example 1)
# Conditions: read-out: 2D6 Affinity (IC50), Table 2
# Source text: The degree of a given molecule's metabolism by and affinity for CYP2D6 and other CYP isoforms may be assessed by any techniques known in the art, including through the use of Bactosomes™ or by microsomal inhibition studies. In vitro metabolism studies using Bactosomes™ expressing individual human CYP isoforms monitor the extent to which a test compound is metabolized by a single CYP450 enzyme and allow identification of the CYP isoforms that may be responsible for the metabolism of a test compound. […] These techniques can be used to assess the metabolism and affinity of not only the unconjugated version of a CYP2D6 bioactive drug but conjugated versions as well.
# T1 sequence (P10635 whole entry): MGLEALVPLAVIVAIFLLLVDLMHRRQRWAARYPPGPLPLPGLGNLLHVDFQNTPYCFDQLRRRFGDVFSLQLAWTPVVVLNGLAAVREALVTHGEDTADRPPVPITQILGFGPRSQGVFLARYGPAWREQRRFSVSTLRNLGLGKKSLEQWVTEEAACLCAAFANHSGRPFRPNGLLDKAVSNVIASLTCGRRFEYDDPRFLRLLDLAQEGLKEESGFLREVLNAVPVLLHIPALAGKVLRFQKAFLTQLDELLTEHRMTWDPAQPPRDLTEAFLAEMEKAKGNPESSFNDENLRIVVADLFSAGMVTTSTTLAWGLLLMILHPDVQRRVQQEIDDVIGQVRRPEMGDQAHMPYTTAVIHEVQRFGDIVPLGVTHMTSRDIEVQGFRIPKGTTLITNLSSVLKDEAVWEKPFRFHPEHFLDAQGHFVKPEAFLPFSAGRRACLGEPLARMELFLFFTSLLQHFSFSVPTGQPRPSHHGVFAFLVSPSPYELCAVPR
row,SMILES,IC50
1,"COCCOCCOCCOCCOCCN1CCN(C(c2ccccc2)c2ccc(Cl)cc2)CC1 (stereo not drawn) [PEG-3-HZ, mPEG3-hydroxyzine]",10.3 µM
2,"COCCOCCOCCOCCOCCOCCOCCN1CCN(C(c2ccccc2)c2ccc(Cl)cc2)CC1 (stereo not drawn) [PEG-5-HZ, mPEG5-hydroxyzine]",11.7 µM

# Biological target: T2, CYP3A4 (Homo sapiens, UniProt P08684)
# Assay: not given
# Conditions: microsomes
# T2 sequence (P08684 whole entry): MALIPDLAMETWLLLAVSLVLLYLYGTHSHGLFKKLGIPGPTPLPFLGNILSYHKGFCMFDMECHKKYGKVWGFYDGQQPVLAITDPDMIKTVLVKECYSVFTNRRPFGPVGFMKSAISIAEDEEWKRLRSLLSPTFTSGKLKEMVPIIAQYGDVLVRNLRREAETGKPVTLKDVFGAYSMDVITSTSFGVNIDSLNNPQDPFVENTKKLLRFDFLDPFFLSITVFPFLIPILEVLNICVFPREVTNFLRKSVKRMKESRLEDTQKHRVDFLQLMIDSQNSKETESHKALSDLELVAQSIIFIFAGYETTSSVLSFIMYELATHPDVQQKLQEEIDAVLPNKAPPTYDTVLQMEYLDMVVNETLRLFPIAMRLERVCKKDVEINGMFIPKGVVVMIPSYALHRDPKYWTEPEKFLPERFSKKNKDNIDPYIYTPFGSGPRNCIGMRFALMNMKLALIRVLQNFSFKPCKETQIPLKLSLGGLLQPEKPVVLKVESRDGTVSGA
row,SMILES,IC50
1,"CC(C)NCC(O)COc1cccc2ccccc12 (stereo not drawn) [Propranolol hydrochloride, reference compound]",13.1 µM

# Same assay, conditions: read-out: CYP3A4 Inhibition of testosterone 6β-hydroxylation IC50; human liver microsomes 0.1 mg/mL, test compound 0.1-25 μM, 5 minutes
row,SMILES,IC50
1,"COCCOCCOCCOCCOCCOCCOCCN1CCN(C(c2ccccc2)c2ccc(Cl)cc2)CC1 (stereo not drawn) [PEG-5-HZ, mPEG5-hydroxyzine]",> 25 µM
2,COCCOCCOCCN(C)CCOC(c1ccccc1)c1ccccc1 [mPEG3-N-diphenhydramine],> 25 µM
3,COCCOCCOCCNCCCN1c2ccccc2CCc2ccccc21 [mPEG3-NH-desipramine],> 25 µM
4,COCCOCCOCCOCCN(C)CCOC(c1ccccc1)c1ccccc1 [mPEG4-N-diphenhydramine],> 25 µM
5,COCCOCCOCCOCCOCCOCCOCCNCCCN1c2ccccc2CCc2ccccc21 [mPEG7-NH-desipramine],> 25 µM

# Biological target: T2, CYP3A4
# Assay: Microsomal inhibition study, inhibition of midazolam metabolism (Example 1)
# Conditions: read-out: 3A4 Affinity (IC50), Table 2
row,SMILES,IC50
1,"COCCOCCOCCOCCOCCN1CCN(C(c2ccccc2)c2ccc(Cl)cc2)CC1 (stereo not drawn) [PEG-3-HZ, mPEG3-hydroxyzine]",17.8 µM
2,"COCCOCCOCCOCCOCCOCCOCCN1CCN(C(c2ccccc2)c2ccc(Cl)cc2)CC1 (stereo not drawn) [PEG-5-HZ, mPEG5-hydroxyzine]",15.4 µM

# Biological target: T1, CYP2D6
# Assay: biochemical
# Conditions: not given
row,SMILES,IC50
1,N=C(N)N1CCc2ccccc2C1 [Debrisoquine sulfate],19.5 µM

# Biological target: T2, CYP3A4
# Assay: not given
# Conditions: microsomes
# Remark: another data set of the same source
row,SMILES,IC50
1,"COCCOCCOCCOCCOCCOCCOCCN1CCN(C(c2ccccc2)c2ccc(Cl)cc2)CC1 (stereo not drawn) [PEG-5-HZ, mPEG5-hydroxyzine]",7.9 µM
2,"CC(C)NCC(O)COc1cccc2ccccc12 (stereo not drawn) [Propranolol hydrochloride, reference compound]",> 25 µM
3,COCCOCCOCCN(C)CCOC(c1ccccc1)c1ccccc1 [mPEG3-N-diphenhydramine],16.4 µM
4,COCCOCCOCCNCCCN1c2ccccc2CCc2ccccc21 [mPEG3-NH-desipramine],17.9 µM
5,COCCOCCOCCOCCN(C)CCOC(c1ccccc1)c1ccccc1 [mPEG4-N-diphenhydramine],13.1 µM
6,COCCOCCOCCOCCOCCOCCOCCNCCCN1c2ccccc2CCc2ccccc21 [mPEG7-NH-desipramine],9.51 µM

# Biological target: T1, CYP2D6
# Assay: not given
# Conditions: microsomes
row,SMILES,IC50
1,"CC(C)NCC(O)COc1cccc2ccccc12 (stereo not drawn) [Propranolol hydrochloride, reference compound]",7.5 µM
2,COCCOCCOCCN(C)CCOC(c1ccccc1)c1ccccc1 [mPEG3-N-diphenhydramine],2.6 µM
3,COCCOCCOCCOCCN(C)CCOC(c1ccccc1)c1ccccc1 [mPEG4-N-diphenhydramine],9.2 µM

# Same assay, conditions: read-out: CYP2D6 Inhibition of dextromethorphan O-demethylation IC50; human liver microsomes 0.1 mg/mL, test compound 0.1-25 μM, 5 minutes
row,SMILES,IC50
1,"COCCOCCOCCOCCOCCN1CCN(C(c2ccccc2)c2ccc(Cl)cc2)CC1 (stereo not drawn) [PEG-3-HZ, mPEG3-hydroxyzine]",9.7 µM
2,"COCCOCCOCCOCCOCCOCCOCCN1CCN(C(c2ccccc2)c2ccc(Cl)cc2)CC1 (stereo not drawn) [PEG-5-HZ, mPEG5-hydroxyzine]",11.5 µM
3,COCCOCCOCCNCCCN1c2ccccc2CCc2ccccc21 [mPEG3-NH-desipramine],1.47 µM
4,COCCOCCOCCOCCOCCOCCOCCNCCCN1c2ccccc2CCc2ccccc21 [mPEG7-NH-desipramine],> 25 µM

# — US11033631B2, “Methods of treating CYP2D6 alternative metabolizers” (Nektar Therapeutics, priority 2008, dated 2021)
